ChEMBL document CHEMBL5104188, “Discovery and Characterization of Synthesized and FDA-Approved Inhibitors of Clostridial and Bacillary Collagenases” (J Med Chem, 2022)
≈ marks a conversion by molar mass, not a printed value. Calls of active or inactive are those of the source. The rule behind the calls is not given here.

Key:
[1] = molecular target: Collagenase ColQ1 (Bacillus cereus) (UniProt B9J3S4); settings: dose 100.0 µM, time 144.0 sec
Collagenase ColH [2] = molecular target: T1, Collagenase ColH (Hathewaya histolytica, UniProt Q46085); test: Inhibition of Clostridium histolyticum CoLH using M MOCAcPro-Leu-Gly-Leu-A2pr-(DNP)Ala-Arg-NH2 as substrate incubated for 10 mins by fluorescence spectrophotometer analysis
T1 sequence (Q46085 whole entry): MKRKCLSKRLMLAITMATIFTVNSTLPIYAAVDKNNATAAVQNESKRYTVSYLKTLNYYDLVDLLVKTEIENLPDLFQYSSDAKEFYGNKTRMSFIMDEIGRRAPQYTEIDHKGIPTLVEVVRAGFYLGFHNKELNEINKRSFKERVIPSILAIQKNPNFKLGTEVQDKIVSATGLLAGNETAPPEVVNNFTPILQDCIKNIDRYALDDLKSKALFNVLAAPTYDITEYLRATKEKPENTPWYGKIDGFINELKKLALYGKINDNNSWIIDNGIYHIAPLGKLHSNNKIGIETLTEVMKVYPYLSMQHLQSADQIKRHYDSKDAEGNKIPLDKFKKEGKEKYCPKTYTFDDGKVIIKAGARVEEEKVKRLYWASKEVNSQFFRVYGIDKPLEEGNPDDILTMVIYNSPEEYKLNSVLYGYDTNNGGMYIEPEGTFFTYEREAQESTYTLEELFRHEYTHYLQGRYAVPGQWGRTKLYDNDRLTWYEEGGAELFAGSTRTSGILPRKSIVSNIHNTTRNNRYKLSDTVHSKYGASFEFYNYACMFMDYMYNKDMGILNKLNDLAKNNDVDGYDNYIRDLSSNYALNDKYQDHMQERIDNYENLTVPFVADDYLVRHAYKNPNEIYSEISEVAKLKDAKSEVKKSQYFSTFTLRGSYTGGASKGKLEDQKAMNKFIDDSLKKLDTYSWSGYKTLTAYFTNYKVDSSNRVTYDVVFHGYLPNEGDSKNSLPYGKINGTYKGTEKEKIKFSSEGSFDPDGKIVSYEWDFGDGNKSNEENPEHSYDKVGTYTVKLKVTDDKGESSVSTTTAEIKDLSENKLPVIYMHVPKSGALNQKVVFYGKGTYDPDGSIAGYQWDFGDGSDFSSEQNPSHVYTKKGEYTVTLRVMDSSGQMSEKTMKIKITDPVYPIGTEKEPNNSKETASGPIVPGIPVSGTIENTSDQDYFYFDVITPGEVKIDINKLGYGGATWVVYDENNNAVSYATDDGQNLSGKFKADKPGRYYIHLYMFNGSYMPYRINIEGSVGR

NHDF [3] = test: Inhibition of Bacillus cereus collagenase infected in NHDF cells assessed as reduction in LDH release at > 100 uM incubated for 30 mins by LDH assay; type: cell-based
[4] = molecular target: Collagenase ColA (Bacillus cereus) (UniProt Q81BJ6); test: Irreversible inhibition of Bacillus cereus collagenase unit ColA at 0.125 uM using quenched fluorescent FSI-1 as substrate incubated for 2 min by rapid dilution assay
[5] = molecular target: T2, Collagenase ColG (Clostridium histolyticum) (UniProt Q9X721); test: Reversible inhibition of Clostridium histolyticum collagenase unit of ColG at 7.5 uM using quenched fluorescent FSI-1 as substrate incubated for 2 min by rapid dilution assay; settings: Hathewaya histolytica
T2 sequence (whole entry): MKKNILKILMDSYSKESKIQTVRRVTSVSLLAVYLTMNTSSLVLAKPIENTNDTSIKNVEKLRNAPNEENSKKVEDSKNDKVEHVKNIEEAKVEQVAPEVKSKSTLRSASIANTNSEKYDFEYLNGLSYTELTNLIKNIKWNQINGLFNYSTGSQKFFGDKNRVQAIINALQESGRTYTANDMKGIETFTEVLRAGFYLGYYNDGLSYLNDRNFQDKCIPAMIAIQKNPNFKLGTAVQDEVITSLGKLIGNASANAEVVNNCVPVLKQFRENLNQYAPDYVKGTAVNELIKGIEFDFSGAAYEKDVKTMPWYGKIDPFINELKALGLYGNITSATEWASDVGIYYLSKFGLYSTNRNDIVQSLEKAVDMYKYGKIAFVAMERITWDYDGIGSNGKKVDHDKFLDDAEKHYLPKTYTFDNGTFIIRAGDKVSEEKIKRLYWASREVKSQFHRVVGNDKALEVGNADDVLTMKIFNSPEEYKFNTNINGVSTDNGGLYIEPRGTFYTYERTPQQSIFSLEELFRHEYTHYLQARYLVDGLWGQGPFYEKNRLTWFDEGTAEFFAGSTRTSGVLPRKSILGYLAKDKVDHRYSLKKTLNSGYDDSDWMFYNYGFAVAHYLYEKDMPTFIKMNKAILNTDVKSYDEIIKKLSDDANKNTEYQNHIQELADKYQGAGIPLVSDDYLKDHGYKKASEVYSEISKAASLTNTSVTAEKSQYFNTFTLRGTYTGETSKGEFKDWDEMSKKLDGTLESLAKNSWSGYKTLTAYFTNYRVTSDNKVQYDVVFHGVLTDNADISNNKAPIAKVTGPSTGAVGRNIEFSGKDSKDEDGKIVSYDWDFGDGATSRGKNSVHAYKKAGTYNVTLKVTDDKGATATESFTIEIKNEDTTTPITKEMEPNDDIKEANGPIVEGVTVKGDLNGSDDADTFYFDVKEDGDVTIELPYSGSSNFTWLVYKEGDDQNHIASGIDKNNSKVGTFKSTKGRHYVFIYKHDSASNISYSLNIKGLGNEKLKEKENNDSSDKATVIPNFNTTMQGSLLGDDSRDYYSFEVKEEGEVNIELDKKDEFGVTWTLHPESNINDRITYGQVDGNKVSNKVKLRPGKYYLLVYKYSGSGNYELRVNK

HepG2 = test: Cytotoxicity against human HepG2 cells assessed as reduction in cell viability; type: functional, cell-based
NHDF [6] = test: Inhibition of Bacillus cereus collagenase infected in NHDF cells assessed as protection of spindle shape morphology at > 100 uM incubated for 1 to 6 hrs by coomassie brilliant blue staining based SDS-PAGE analysis; type: cell-based; settings: time 1-6 hrs
Bacillus cereus [7] = test: In vivo inhibition of Bacillus cereus AH187 ColQ1 infected in Galleria mellonella larvae assessed as increase in survival rate at 100 uM incubated for 3 days; type: functional; settings: AH187, 72 h, time 3 day
NHDF [8] = test: Inhibition of Bacillus cereus collagenase infected in NHDF cells assessed as suppression of gelatin lysis incubated for 1 to 6 hrs by coomassie brilliant blue staining based zymography analysis; type: cell-based; settings: dose 12.5-100 µM, time 1-6 hrs
NHDF [9] = test: Inhibition of Bacillus cereus collagenase infected in NHDF cells assessed as fibrillar extra cellular matrix at > 100 uM incubated for 1 to 6 hrs by coomassie brilliant blue staining based SDS-PAGE analysis; type: cell-based; settings: time 1-6 hrs
[10] = molecular target: T3, Collagenase ColH (Hathewaya histolytica) (UniProt Q46085); test: Reversible inhibition of Clostridium histolyticum peptidase domain of ColH at 1.25 uM using quenched fluorescent FSI-1 as substrate incubated for 2 min by rapid dilution assay
T3 sequence (whole entry): T1 sequence (Q46085 whole entry)

[11] = molecular target: Collagenase ColQ1 (Bacillus cereus) (UniProt B9J3S4); test: Inhibition of full length Bacillus cereus ColQ1 assessed as reduction in Col 1 cleavage at 1.5 to 12.5 uM incubated for 3 hrs by SDS-PAGE analysis; settings: dose 1.5-12.5 µM
NHDF [12] = test: Inhibition of Bacillus cereus collagenase infected in NHDF cells assessed as suppression of gelatin lysis at 100 uM incubated for 1 to 6 hrs by coomassie brilliant blue staining based zymography analysis; type: cell-based; settings: time 1-6 hrs
NHDF [13] = test: Inhibition of Bacillus cereus collagenase infected in NHDF cells assessed as reduction in cell viability at 100 uM; type: cell-based
NHDF [14] = test: Inhibition of Bacillus cereus collagenase infected in NHDF cells assessed as prevention of cell detachment at 100 uM incubated for 1 to 6 hrs by coomassie brilliant blue staining based SDS-PAGE analysis; settings: time 1-6 hrs
[15] = molecular target: 72 kDa type IV collagenase (Homo sapiens, UniProt P08253); test: Inhibition of human MMP-2 assessed as inhibition constant using AcProLeuGly-S-LeuLeuGlyOEt as substrate by spectrophotometer analysis
Neutrophil collagenase = Neutrophil collagenase (Homo sapiens, UniProt P22894); test: Inhibition of human MMP-8 assessed as inhibition constant using AcProLeuGly-S-LeuLeuGlyOEt as substrate by spectrophotometer analysis
NHDF [16] = test: Inhibition of Bacillus cereus collagenase infected in NHDF cells assessed as prevention of cell detachment at 25 uM incubated for 1 to 6 hrs by coomassie brilliant blue staining based SDS-PAGE analysis; settings: time 1-6 hrs
NHDF [17] = test: Inhibition of Bacillus cereus collagenase infected in NHDF cells assessed as reduction in LDH release at > 50 uM incubated for 30 mins by LDH assay; type: cell-based
NHDF [18] = test: Inhibition of Bacillus cereus collagenase infected in NHDF cells assessed as protection of spindle shape morphology at > 50 uM incubated for 1 to 6 hrs by coomassie brilliant blue staining based SDS-PAGE analysis; type: cell-based; settings: time 1-6 hrs
Bacillus cereus [19] = test: In vivo inhibition of Bacillus cereus AH187 ColQ1 infected in Galleria mellonella larvae assessed as increase in survival rate at 200 uM incubated for 3 days; type: functional; settings: AH187, 72 h, time 3 day
NHDF [20] = test: Inhibition of Bacillus cereus collagenase infected in NHDF cells assessed as suppression of gelatin lysis at 200 uM incubated for 1 to 6 hrs by coomassie brilliant blue staining based zymography analysis; type: cell-based; settings: time 1-6 hrs
Bacillus cereus [21] = test: Antibacterial activity against Bacillus cereus AH187 assessed as minimal inhibitory concentration incubated for 48 hrs microplate reader analysis; type: functional
Collagenase ColH [22] = molecular target: T1, Collagenase ColH; test: Inhibition of Clostridium histolyticum CoLH assessed as inhibition constant using M MOCAcPro-Leu-Gly-Leu-A2pr-(DNP)Ala-Arg-NH2 as substrate incubated for 10 mins by fluorescence spectrophotometer analysis
NHDF [23] = test: Inhibition of Bacillus cereus collagenase infected in NHDF cells assessed as reduction in cell viability at 25 to 100 uM; type: cell-based; settings: dose 25-100 µM
NHDF [24] = test: Inhibition of Bacillus cereus collagenase infected in NHDF cells assessed as prevention of cell detachment at 25 to 100 uM incubated for 1 to 6 hrs by coomassie brilliant blue staining based SDS-PAGE analysis; settings: dose 25-100 µM, time 1-6 hrs
[25] = molecular target: Collagenase ColA (Bacillus cereus) (UniProt Q81BJ6); test: Reversible inhibition of Bacillus cereus collagenase unit ColA at 4.375 uM using quenched fluorescent FSI-1 as substrate incubated for 2 min by rapid dilution assay
[26] = Stability of compound in DMEM medium at 200 uM incubated for 2 hrs by LC-MS analysis; type: physicochemical
Collagenase ColH [27] = molecular target: T1, Collagenase ColH; test: Inhibition of Clostridium histolyticum CoLH

Collagenase ColA (Bacillus cereus), sequence (Q81BJ6 whole entry): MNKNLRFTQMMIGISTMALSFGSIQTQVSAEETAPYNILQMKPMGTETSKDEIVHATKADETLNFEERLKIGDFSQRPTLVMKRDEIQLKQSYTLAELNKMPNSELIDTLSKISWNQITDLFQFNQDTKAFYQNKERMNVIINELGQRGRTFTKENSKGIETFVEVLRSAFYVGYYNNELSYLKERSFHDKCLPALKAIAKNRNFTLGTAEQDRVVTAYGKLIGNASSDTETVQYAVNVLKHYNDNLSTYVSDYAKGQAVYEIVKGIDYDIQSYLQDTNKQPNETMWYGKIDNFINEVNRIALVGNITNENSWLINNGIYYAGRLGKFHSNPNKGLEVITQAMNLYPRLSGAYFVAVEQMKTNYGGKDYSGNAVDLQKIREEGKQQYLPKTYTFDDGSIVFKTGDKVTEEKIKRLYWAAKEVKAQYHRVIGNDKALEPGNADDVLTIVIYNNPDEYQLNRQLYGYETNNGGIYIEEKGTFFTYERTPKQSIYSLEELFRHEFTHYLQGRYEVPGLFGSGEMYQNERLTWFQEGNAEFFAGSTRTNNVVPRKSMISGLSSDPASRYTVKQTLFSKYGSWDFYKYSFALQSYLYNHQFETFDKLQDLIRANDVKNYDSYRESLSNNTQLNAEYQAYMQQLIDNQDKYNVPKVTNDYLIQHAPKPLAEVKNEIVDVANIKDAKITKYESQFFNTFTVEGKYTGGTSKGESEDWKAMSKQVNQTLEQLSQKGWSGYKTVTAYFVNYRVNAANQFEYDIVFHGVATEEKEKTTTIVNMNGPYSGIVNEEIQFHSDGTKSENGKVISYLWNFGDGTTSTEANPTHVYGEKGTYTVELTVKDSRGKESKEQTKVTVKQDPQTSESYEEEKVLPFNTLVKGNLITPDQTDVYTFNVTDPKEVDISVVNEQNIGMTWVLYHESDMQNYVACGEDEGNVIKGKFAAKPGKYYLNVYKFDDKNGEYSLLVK
Collagenase ColQ1 (Bacillus cereus), sequence (B9J3S4 whole entry): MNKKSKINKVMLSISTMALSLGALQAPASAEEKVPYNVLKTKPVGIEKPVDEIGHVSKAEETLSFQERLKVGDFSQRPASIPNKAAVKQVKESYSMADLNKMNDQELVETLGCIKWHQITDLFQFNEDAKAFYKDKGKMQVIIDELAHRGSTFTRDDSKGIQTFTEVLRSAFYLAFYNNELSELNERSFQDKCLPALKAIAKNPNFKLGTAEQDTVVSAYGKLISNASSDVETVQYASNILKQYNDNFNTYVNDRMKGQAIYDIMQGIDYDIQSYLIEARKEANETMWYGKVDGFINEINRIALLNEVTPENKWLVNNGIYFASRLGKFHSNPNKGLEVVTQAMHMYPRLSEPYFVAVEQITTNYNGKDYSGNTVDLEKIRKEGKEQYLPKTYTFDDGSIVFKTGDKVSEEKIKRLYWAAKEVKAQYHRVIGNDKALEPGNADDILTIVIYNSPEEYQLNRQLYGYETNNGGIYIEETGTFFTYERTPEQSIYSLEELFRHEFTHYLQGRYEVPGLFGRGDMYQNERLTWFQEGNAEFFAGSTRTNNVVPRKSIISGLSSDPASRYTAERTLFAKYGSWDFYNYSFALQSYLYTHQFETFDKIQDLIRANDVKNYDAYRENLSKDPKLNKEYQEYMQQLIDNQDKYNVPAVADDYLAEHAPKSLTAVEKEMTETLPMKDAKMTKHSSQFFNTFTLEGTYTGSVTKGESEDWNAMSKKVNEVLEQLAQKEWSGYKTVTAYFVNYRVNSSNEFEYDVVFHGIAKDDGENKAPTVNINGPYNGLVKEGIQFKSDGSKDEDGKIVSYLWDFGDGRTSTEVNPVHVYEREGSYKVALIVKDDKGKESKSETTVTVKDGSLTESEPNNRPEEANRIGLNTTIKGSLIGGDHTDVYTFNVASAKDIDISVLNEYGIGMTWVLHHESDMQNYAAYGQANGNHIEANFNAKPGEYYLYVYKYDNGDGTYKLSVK
72 kDa type IV collagenase, sequence (P08253 whole entry): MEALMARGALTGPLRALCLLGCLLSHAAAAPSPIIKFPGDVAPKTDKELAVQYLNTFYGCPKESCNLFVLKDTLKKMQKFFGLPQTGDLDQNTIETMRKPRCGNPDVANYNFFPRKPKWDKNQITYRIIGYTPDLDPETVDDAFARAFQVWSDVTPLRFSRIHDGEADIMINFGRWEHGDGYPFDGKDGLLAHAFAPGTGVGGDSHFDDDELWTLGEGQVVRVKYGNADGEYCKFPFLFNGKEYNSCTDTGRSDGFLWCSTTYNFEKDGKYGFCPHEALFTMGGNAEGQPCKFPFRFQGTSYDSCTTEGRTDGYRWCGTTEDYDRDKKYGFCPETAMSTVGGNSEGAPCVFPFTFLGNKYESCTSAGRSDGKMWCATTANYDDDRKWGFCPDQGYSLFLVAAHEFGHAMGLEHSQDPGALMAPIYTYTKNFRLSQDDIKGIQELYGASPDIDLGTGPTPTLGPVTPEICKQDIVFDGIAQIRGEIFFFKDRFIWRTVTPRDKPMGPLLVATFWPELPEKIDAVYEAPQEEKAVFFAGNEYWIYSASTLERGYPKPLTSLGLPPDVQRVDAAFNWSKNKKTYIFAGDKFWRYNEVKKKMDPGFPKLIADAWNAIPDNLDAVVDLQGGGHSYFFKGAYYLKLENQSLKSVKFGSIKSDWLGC
Neutrophil collagenase, sequence (P22894 whole entry): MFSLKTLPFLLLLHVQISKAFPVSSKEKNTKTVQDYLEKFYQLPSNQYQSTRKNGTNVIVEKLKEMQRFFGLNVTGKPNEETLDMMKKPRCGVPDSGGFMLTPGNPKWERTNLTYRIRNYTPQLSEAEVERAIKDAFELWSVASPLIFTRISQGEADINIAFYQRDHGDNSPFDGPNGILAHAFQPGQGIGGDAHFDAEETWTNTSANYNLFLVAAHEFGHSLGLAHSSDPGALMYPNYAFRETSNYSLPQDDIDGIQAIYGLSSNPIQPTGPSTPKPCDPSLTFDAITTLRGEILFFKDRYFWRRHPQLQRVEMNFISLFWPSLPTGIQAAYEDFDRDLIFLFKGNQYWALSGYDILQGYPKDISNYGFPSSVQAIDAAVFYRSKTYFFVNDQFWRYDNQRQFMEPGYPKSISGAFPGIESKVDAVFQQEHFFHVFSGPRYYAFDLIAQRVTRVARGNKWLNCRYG

CCOP(=O)(OCC)c1nc2ccc(OC)cc2nc1P(=O)(OCC)OCC
inhibition [1]: < 5%

COc1cc2ccc(=O)oc2cc1OC [SCOPARONE]
IC50 (Collagenase ColH [2]): 24 nM

O=P(O)(O)c1nc2ccc(-c3ccc(Cl)cc3)cc2nc1P(=O)(O)O
inhibition (NHDF [3]): Active
inhibition [4]: Active
inhibition [5]: Active
IC50 (HepG2): > 100000 nM
inhibition (NHDF [6]): Active
inhibition in vivo at 100 µM (Bacillus cereus [7]): 35%
inhibition (NHDF [8]): Active
inhibition (NHDF [9]): Active
inhibition [10]: Active

O=P(O)(O)c1nc2ccccc2nc1P(=O)(O)O
inhibition [11]: Active

O=P(O)(O)c1nc2ccc(Br)cc2nc1P(=O)(O)O
inhibition (NHDF [12]): Active
inhibition (NHDF [13]): Active
inhibition (NHDF [14]): Active

O=C(O)CN(CC1c2ccccc2C=Cc2ccccc21)C(=O)NS(=O)(=O)c1ccc(F)cc1
Ki [15]: 9 nM
Ki (Neutrophil collagenase): 13 nM
IC50 (Collagenase ColH [2]): 21 nM

O=C(Nc1ccc(Cl)c(Cl)c1)c1ccc2nc(P(=O)(O)O)c(P(=O)(O)O)nc2c1
inhibition (NHDF [12]): Active
inhibition (NHDF [16]): Active
IC50 (HepG2): > 100000 nM
inhibition in vivo at 100 µM (Bacillus cereus [7]): 50%
inhibition (NHDF [17]): Active
inhibition (NHDF [18]): Active

O=P(O)(O)c1nc2ccc(F)cc2nc1P(=O)(O)O
inhibition [1]: < 5%

O=P(O)(O)c1nc2cc(Cl)c(Cl)cc2nc1P(=O)(O)O
inhibition [4]: Active
inhibition in vivo at 200 µM (Bacillus cereus [19]): 35%
inhibition (NHDF [16]): Active
inhibition [5]: Active
inhibition (NHDF [20]): Active
inhibition (NHDF [17]): Active
MIC50 (Bacillus cereus [21]): 100 µM (≈ 35.9 µg/mL)
inhibition (NHDF [18]): Active
inhibition [10]: Active

NCCCC(O)(P(=O)(O)O)P(=O)(O)O
inhibition (NHDF [3]): Active
inhibition (NHDF [6]): Active
inhibition (NHDF [20]): Active
inhibition (NHDF [9]): Active

CC(NC(=O)C(Cc1ccccc1)NC(=O)NS(=O)(=O)c1ccc(F)cc1)C(=O)Nc1nnc(S)s1 (centres undefined)
Ki (Collagenase ColH [22]): 200 nM

Cc1ccc2nc(P(=O)(O)O)c(P(=O)(O)O)nc2c1
inhibition (NHDF [23]): Active
inhibition (NHDF [12]): Active
inhibition (NHDF [24]): Active

CC(=O)Nc1ccccc1OCc1cn(CCNC(=O)C(CC(C)C)C(=O)NO)nn1 (centres undefined)
inhibition [5]: Active
inhibition [25]: Active
IC50 (HepG2): > 100000 nM
Stability [26]: Stable
inhibition [10]: Active

CC(=O)Nc1ccccc1OCc1cn(CCNC(=O)C(Cc2ccccc2)C(=O)NO)nn1 (centres undefined)
inhibition [5]: Active
inhibition [25]: Active
inhibition [10]: Active

O=P(O)(O)C(Sc1ccc(Cl)cc1)P(=O)(O)O
inhibition (NHDF [3]): Active
inhibition (NHDF [6]): Active
inhibition (NHDF [9]): Active

CC(=O)c1ccc(NC(=O)CSC(N)=O)cc1
IC50 (Collagenase ColH [27]): 10 nM
